Data set [1] in a line: Cytotoxicity in HepG2 cells, Resazurin assay. The following applies: human. On the technique in general: Alamar Blue is a resazurin reagent that responds to reducing activity.
In data set [2] the test system is HBV. The data set can be described thus: Anti-HBV activity, HepG2.2.15 stable transfected cell line, HBV DNA from secreted virions by realtime PCR. The class given is cell-based, Hepatitis B virus (HBV). The following applies: HepG2.2.15 cells, 6 days of treatment.
For data set [3], the system named is HBV. In words: Anti-HBV activity, HepG2.117 inducibly HBV producing cell line (Tet-off), intracellular HBV DNA by realtime PCR. The class given is cell-based, Hepatitis B virus (HBV). The following applies: HepG2.117 cells, 3 days of treatment.
Setting [4] is: Hepatitis B virus, HepG2.2.15, 144 h.
Setting [5] is: Hepatitis B virus, HepG2.117, 72 h.

As a reminder, the CC50 is the concentration that lowers cell viability or growth by half. Higher therefore signals lower toxicity to the cells. Broadly, the EC50 is the midpoint of the concentration-response curve.

For the molecule `CCCS(=O)(=O)N1CC[C@H](C(=O)Nc2ccc(F)c(C)c2)C1` [Compound 6, (3S)—N-(4-fluoro-3-methyl-phenyl)-1-propylsulfonyl-pyrrolidine-3-carboxamide], the CC50 at 4 days in data set [1] is > 25000 nM. Besides, the half-maximal effective concentration (EC50) in data set [2] (setting [4]) was determined as 1900 nM; in data set [3] (setting [5]) it was 620 nM.

On to `Cc1cc(NC(=O)[C@H]2CCN(S(=O)(=O)NC(C)CC#N)C2)ccc1F` (stereo partly drawn) [Compound 40, (3S)-1-[(2-cyano-1-methyl-ethyl)sulfamoyl]-N-(4-fluoro-3-methyl-phenyl)pyrrolidine-3-carboxamide], for which the CC50 at 4 days in data set [1] was > 25000 nM. Also, the figures for the EC50 in data set [2] (setting [4]) and in data set [3] (setting [5]) were 290 nM and 120 nM, respectively.

As to `Cc1cc(NC(=O)C23CC2CN(S(=O)(=O)N[C@H]2CCOC2)C3)ccc1F` (stereo partly drawn) [Compound 43, N-(4-fluoro-3-methyl-phenyl)-3-[[(3S)-tetrahydrofuran-3-yl]sulfamoyl]-3-azabicyclo[3.1.0]hexane-1-carboxamide], in data set [1], the CC50 at 4 days is > 25000 nM. In addition, the EC50 in data set [2] (setting [4]) was 580 nM; in data set [3] (setting [5]), 850 nM.

For `Cc1cc(NC(=O)[C@H]2CCN(S(=O)(=O)C3CCCC3)C2)ccc1F` [Compound 10, (3S)-1-cyclopentylsulfonyl-N-(4-fluoro-3-methyl-phenyl)pyrrolidine-3-carboxamide], in data set [1], the CC50 at 4 days is 22900 nM. Also, the EC50 in data set [2] (setting [4]) stood at 4300 nM; in data set [3] (setting [5]) it was 760 nM.

Take `CCC1CC1S(=O)(=O)N1CC[C@H](C(=O)Nc2ccc(F)c(C)c2)C1` (stereo partly drawn) [Compound 24, (3S)-1-(2-ethylcyclopropyl)sulfonyl-N-(4-fluoro-3-methyl-phenyl)pyrrolidine-3-carboxamide]: the CC50 at 4 days in data set [1] is > 25000 nM. In addition, the EC50 in data set [2] (setting [4]) was 500 nM; in data set [3] (setting [5]) it was 330 nM.

As to `CC1(NS(=O)(=O)N2CC[C@H](C(=O)Nc3ccc(F)c(F)c3)C2)COC1` [Compound 44, (3S)—N-(3,4-difluorophenyl)-1-[(3-methyloxetan-3-yl)sulfamoyl]pyrrolidine-3-carboxamide], in data set [1], the CC50 at 4 days was > 25000 nM. The EC50 stood at 610 nM in data set [2] (setting [4]) and 420 nM in data set [3] (setting [5]).

As for `Cc1cc(NC(=O)[C@H]2CCN(S(=O)(=O)NC(C)CNC(=O)OC(C)(C)C)C2)ccc1F` (stereo partly drawn) [Compound 38, tert-butyl N-[2-[[(3S)-3-[(4-fluoro-3-methyl-phenyl)carbamoyl]pyrrolidin-1-yl]sulfonylamino]propyl]carbamate], the CC50 at 4 days in data set [1] was > 25000 nM. In addition, the EC50 in data set [2] (setting [4]) came to 3650 nM; in data set [3] (setting [5]), 2070 nM.

For the molecule `Cc1cc(NC(=O)[C@H]2CCN(S(=O)(=O)N3CC4(COC4)C3)C2)ccc1F` [Compound 49, (3S)—N-(4-fluoro-3-methyl-phenyl)-1-(6-oxa-2-azaspiro[3.3]heptan-2-ylsulfonyl)pyrrolidine-3-carboxamide], in data set [1], the CC50 at 4 days is > 25000 nM. Moreover, the EC50 is 1490 nM in data set [2] (setting [4]) and 950 nM in data set [3] (setting [5]).

As for `Cc1cc(NC(=O)C2CN(S(=O)(=O)NC(C)C)C3CC23)ccc1F` (single isomer, unassigned) [Compound 36a, N-(4-fluoro-3-methyl-phenyl)-2-(isopropylsulfamoyl)-2-azabicyclo[3.1.0]hexane-4-carboxamide], the CC50 at 4 days in data set [1] was > 25000 nM. Also, the EC50 was found to be 2390 nM in data set [2] and 2650 nM in data set [3].

For the molecule `O=C(Nc1ccc(F)c(F)c1)[C@H]1CCN(S(=O)(=O)N[C@H]2CCOC2)C1` [Compound 46, (3S)—N-(3,4-difluorophenyl)-1-[[(3S)-tetrahydrofuran-3-yl]sulfamoyl]pyrrolidine-3-carboxamide], the CC50 at 4 days in data set [1] is > 25000 nM. Besides, the EC50 turned out to be 600 nM in data set [2] (setting [4]) and 240 nM in data set [3] (setting [5]).

Regarding `Cc1cc(NC(=O)[C@H]2CCN(S(=O)(=O)N[C@@H]3c4ccccc4C[C@H]3O)C2)ccc1F` [Compound 37, (3S)—N-(4-fluoro-3-methyl-phenyl)-1-[[(1R,2R)-2-hydroxyindan-1-yl]sulfamoyl]pyrrolidine-3-carboxamide], the CC50 at 4 days in data set [1] was > 25000 nM. In addition, the EC50 in data set [2] (setting [4]) is 270 nM; in data set [3] (setting [5]), 530 nM.

Regarding `Cc1cc(NC(=O)C2(F)CCN(S(=O)(=O)N[C@H]3CCOC3)C2)ccc1F` (single isomer, unassigned) [Compound 42a], the half-maximal cytotoxic concentration (CC50) at 4 days in data set [1] is > 25000 nM. Moreover, the EC50 in data set [2] (setting [4]) and in data set [3] was > 5000 nM throughout.

Consider `Cc1cc(NC(=O)[C@@H]2CCN(S(=O)(=O)CC(C)C)C2)ccc1F` [Compound 3, (3R)—N-(4-fluoro-3-methyl-phenyl)-1-isobutylsulfonyl-pyrrolidine-3-carboxamide], for which the CC50 at 4 days in data set [1] was > 25000 nM. Moreover, the EC50 was > 25000 nM in data set [2] (setting [4]) and 1490 nM in data set [3] (setting [5]).

Consider `Cc1cc(NC(=O)[C@H]2CCN(C(=O)OCC(C)C)C2)ccc1F` [Compound 26, isobutyl (3S)-3-[(4-fluoro-3-methyl-phenyl)carbamoyl]pyrrolidine-1-carboxylate], for which, in data set [1], the CC50 at 4 days is > 25000 nM. The EC50 in data set [2] (setting [4]) came out at 4400 nM; in data set [3] (setting [5]), 410 nM.

Turning to `Cc1cc(NC(=O)[C@H]2CCN(S(=O)(=O)NCC(C)C)C2)ccc1F` [Compound 31, (3S)—N-(4-fluoro-3-methyl-phenyl)-1-(isobutylsulfamoyl)pyrrolidine-3-carboxamide], the CC50 at 4 days in data set [1] is > 25000 nM. The EC50 in data set [2] (setting [4]) was determined as 450 nM; in data set [3] (setting [5]) it was 470 nM.

As to `Cc1cc(NC(=O)[C@@]23C[C@@H]2CN(S(=O)(=O)CC(C)C)C3)ccc1F` [Compound 27, (1S,5S)—N-(4-fluoro-3-methyl-phenyl)-3-isobutylsulfonyl-3-azabicyclo[3.1.0]hexane-1-carboxamide], the CC50 at 4 days in data set [1] was > 25000 nM. Also, the EC50 amounted to 2800 nM in data set [2] (setting [4]) and 2000 nM in data set [3] (setting [5]).

Take `Cc1cc(NC(=O)[C@@H]2CN(S(=O)(=O)NC(C)C)C[C@H]2C)ccc1F` (relative stereo) [Compound 41, trans-N-(4-fluoro-3-methyl-phenyl)-1-(isopropylsulfamoyl)-4-methyl-pyrrolidine-3-carboxamide]: the CC50 at 4 days in data set [1] is > 25000 nM. Further, the EC50 in data set [2] (setting [4]) turned out to be 530 nM; in data set [3] (setting [5]), 420 nM.

Regarding `Cc1cc(NC(=O)[C@H]2CCN(S(=O)(=O)C3CCOCC3)C2)ccc1F` [Compound 9, (3S)—N-(4-fluoro-3-methyl-phenyl)-1-tetrahydropyran-4-ylsulfonyl-pyrrolidine-3-carboxamide], in data set [1], the CC50 at 4 days was > 25000 nM. Also, the results for the EC50 in data set [2] (setting [4]) and in data set [3] (setting [5]) were 1400 nM and 950 nM, respectively.

On to `Cc1cc(NC(=O)C2CN(S(=O)(=O)CC(C)C)c3ccccc32)ccc1F` (centres unmarked) [Compound 28, N-(4-fluoro-3-methyl-phenyl)-1-isobutylsulfonyl-indoline-3-carboxamide], for which the CC50 at 4 days in data set [1] was > 25000 nM. Also, the concentration giving a half-maximal response (EC50) in data set [2] (setting [4]) worked out at 2000 nM; in data set [3] (setting [5]) it was 3900 nM.

`Cc1cc(NC(=O)[C@H]2CCN(S(=O)(=O)NC3(C)COC3)C2)ccc1F` [Compound 34, (3S)—N-(4-fluoro-3-methyl-phenyl)-1-[(3-methyloxetan-3-yl)sulfamoyl]pyrrolidine-3-carboxamide]: the CC50 at 4 days in data set [1] was > 25000 nM. Further, the EC50 in data set [2] (setting [4]) and in data set [3] (setting [5]) was 110 nM in each case.

In the case of `CC[C@@H](C)NS(=O)(=O)N1CC[C@H](C(=O)Nc2ccc(F)c(F)c2)C1` [Compound 45, (3S)—N-(3,4-difluorophenyl)-1-[[(1R)-1-methylpropyl]sulfamoyl]pyrrolidine-3-carboxamide], the CC50 at 4 days in data set [1] is > 25000 nM. In addition, the EC50 in data set [2] (setting [4]) amounted to 3250 nM; in data set [3] (setting [5]) it was 540 nM.

Turning to `Cc1cc(NC(=O)C2(C)CCN(S(=O)(=O)CC(C)C)C2)ccc1F` (racemic) [Compound 29, N-(4-fluoro-3-methyl-phenyl)-1-isobutylsulfonyl-3-methyl-pyrrolidine-3-carboxamide], in data set [1], the CC50 at 4 days was > 25000 nM. For the same molecule, the EC50 in data set [2] (setting [4]) turned out to be 13700 nM; in data set [3], 18900 nM.

Turning to `COC(=O)NC[C@@H](C)NS(=O)(=O)N1CC[C@H](C(=O)Nc2ccc(F)c(C)c2)C1` [Compound 51, methyl N-[(2R)-2-[[(3S)-3-[(4-fluoro-3-methyl-phenyl)carbamoyl]pyrrolidin-1-yl]sulfonylamino]propyl]carbamate], the CC50 at 4 days in data set [1] was > 25000 nM. Besides, the values for the EC50 in data set [2] (setting [4]) and in data set [3] (setting [5]) were 150 nM and 57 nM, respectively.

Regarding `Cc1cc(NC(=O)[C@H]2CCN(S(=O)(=O)NC(C)C)C2)ccc1F` [Compound 32, (3S)—N-(4-fluoro-3-methyl-phenyl)-1-(isopropylsulfamoyl)pyrrolidine-3-carboxamide], the CC50 at 4 days in data set [1] is > 25000 nM. Besides, the EC50 in data set [2] (setting [4]) is 180 nM; in data set [3] (setting [5]), 120 nM.

Take `Cc1cc(NC(=O)[C@H]2CCN(S(=O)(=O)NC3CCN(C)C3=O)C2)ccc1F` (stereo partly drawn) [Compound 48, (3S)—N-(4-fluoro-3-methyl-phenyl)-1-[(1-methyl-2-oxo-pyrrolidin-3-yl)sulfamoyl]pyrrolidine-3-carboxamide]: the CC50 at 4 days in data set [1] was > 25000 nM. The EC50 in data set [2] (setting [4]) is 1370 nM; in data set [3] (setting [5]), 570 nM.

For the molecule `Cc1cc(NC(=O)C2CCN(S(=O)(=O)CC(C)C)C2)ccc1F` (centres unmarked) [Compound 1, N-(4-fluoro-3-methyl-phenyl)-1-isobutylsulfonyl-pyrrolidine-3-carboxamide], the CC50 at 4 days in data set [1] is > 25000 nM. For the same molecule, the EC50 in data set [2] (setting [4]) turned out to be 940 nM; in data set [3] (setting [5]), 720 nM.

Turning to `Cc1cc(NC(=O)C2(F)CCN(S(=O)(=O)NC(C)C)C2)ccc1F` (racemic) [Compound 35a, 3-fluoro-N-(4-fluoro-3-methyl-phenyl)-1-(isopropylsulfamoyl)pyrrolidine-3-carboxamide], the CC50 at 4 days in data set [1] is > 25000 nM. Also, the concentration for a half-maximal effect (EC50) in data set [2] was determined as 563 nM; in data set [3], 228 nM.

Consider `Cc1cc(NC(=O)[C@H]2CCN(S(=O)(=O)N[C@H](C)CO)C2)ccc1F` [Compound 39, (3S)—N-(4-fluoro-3-methyl-phenyl)-1-[[(1R)-2-hydroxy-1-methyl-ethyl]sulfamoyl]pyrrolidine-3-carboxamide], for which the CC50 at 4 days in data set [1] is > 25000 nM. In data set [3] (setting [5]), this molecule came in with an EC50 of 150 nM.

The values are drawn from patent publication US9895349B2, “N-phenyl-carboxamide derivatives and the use thereof as medicaments for the treatment of hepatitis B” (priority 2013, dated 2018).
